Measurements from US7220832B2, “Dermacentor variabilis GABA-gated chloride channels” (priority 2000, dated 2007).

System: D. variabilis GABA-gated chloride channel
Experiment: Two-microelectrode voltage clamp recording of Xenopus laevis oocytes injected with Dv8, Dv9 or Dv5 mRNA
Type: cell-based, Dermacentor variabilis
Settings: for current in response to application of compound: 1 mM, oocytes expressing Dv8 and Dv9 (SEQ. ID. NOs. 1 and 2), holding potential 0 or -30 mV; for block of the GABA-activated current: current activated by 1 mM GABA
Procedure: Functional expression of a D. variabilis GABA-gated chloride channel was observed using MRNA encoding for the polypeptide of SEQ. ID. NOs. 1, 2, and 3 injected into Xenopus laevis oocytes. MRNA encoding for SEQ. ID. NOs. 1, 2, and 3 were obtained using the Dv8, Dv9, and Dv5 clones as described in Example 1.
Xenopus laevis oocytes were prepared and injected using standard methods previously described. (Arena et al., Mol. Pharmaco. 40:368-374, 1991; and Arena et al., Mol. Brain Res. 15:339-348, 1992.) Adult female Xenopus laevis were anesthetized with 0.17% tricaine methanesulfonate and the ovaries were surgically removed and placed in a solution consisting of (mM): NaCl 82.5, KCl 2, MgCl2 1, HEPES 5, NaPyruvate 2.5, Penicillin G. 100,000 units/L, Streptomycin Sulfate 1000 mg/L, pH 7.5 (Mod. OR-2).
Ovarian lobes were broken open, rinsed several times in Mod. OR-2, and incubated in 0.2% collagenase (Sigma, Type1) in Mod. OR-2 at room temperature with gentle shaking. After 1 hour the collagenase solution was renewed and the oocytes were incubated for an additional 30-90 minutes until approximately 50% of the oocytes were released from the ovaries. Stage V and VI oocytes were selected and placed in media containing (mM): NaCl 96, KCl 2, MgCl2 1, CaCl2 1.8, HEPES 5, NaPyruvate 2.5, theophylline 0.5, gentamicin […], pH 7.5 (ND-96) for 16-24 hours before injection. Oocytes were injected with 50 nl of Dv8, Dv9, or Dv5 RNA at a concentration of 0.2 mg/ml. Oocytes were incubated at 18° C. for 1-6 days in ND-96 before recording.
Recordings were made at room temperature in modified ND-96 consisting of (mM): NaCl 96, MgCl2 1, CaCl2 0.1, BaCl2 3.5, HEPES 5, pH 7.5. Oocytes were voltage clamped using a Dagan CA1 two microelectrode amplifier (Dagan Corporation, Minneapolis, Minn.) interfaced to a Macintosh 7100/80 computer. The current passing electrode was filled with 0.7 M KCl, 1.7 M KCitrate, and the voltage recording electrode was filled with 1 M KCl. Throughout the experiment oocytes were superfused with modified ND-96 (control solution) or with ND-96 containing potential channel activators and blockers at a rate of approximately 3 ml/min. Data were acquired at 100 Hz and filtered at 33.3 Hz using Pulse software from HEKA Elektronik (Lambrecht, Germany). All recordings were performed from a holding potential of either 0 or −30 mV.
During a 60s application of GABA approximately 50% of the current desensitized and the remaining current deactivated rapidly upon wash-out of GABA. Repeated applications of 1 mM GABA elicited similar responses. […] Oocytes injected with Dv5 mRNA responded similarly to oocytes injected with Dv8 and Dv9 mRNA (data not shown).

SMILES: NCCCC(=O)O [GABA, γ-Aminobutric acid]
- current in response to application of compound: rapidly activating current
- fraction of the current desensitized during application (60s application of 1 mM GABA, oocytes expressing Dv8 and Dv9): approximately 50%

SMILES: N#Cc1nn(-c2c(Cl)cc(C(F)(F)F)cc2Cl)c(N)c1[S+]([O-])C(F)(F)F (centres unmarked) [fipronil]
- block of the GABA-activated current (5 μM, FIG. 5, channel of SEQ. ID. NO. 2 (Dv9)): blocked completely

SMILES: N[C@@H](CCC(=O)O)C(=O)O [glutamate]
- current in response to application of compound: did not activate a current

SMILES: C=C(C)[C@@H]1[C@H]2OC(=O)[C@@H]1[C@]1(O)C[C@H]3O[C@]34C(=O)O[C@H]2[C@]14C [picrotoxinin]
- block of the GABA-activated current (10 μM, data not shown): blocked completely
